{
  "source": "paper PMC7303324",
  "about": "“Conventional Pig as Animal Model for Human Renal Drug Excretion Processes: Unravelling the Porcine Renal Function by Use of a Cocktail of Exogenous Markers” (Frontiers in Pharmacology, 2020)",
  "key": {"[1]": {"settings": "humans, cited from earlier work"}, "[2]": {"assay": "Pharmacokinetics and renal clearance of a renal marker cocktail after IV bolus in 7-week-old male pigs", "settings": "for CL renal: plasma and urine", "from_the_text": "(§1) Eight healthy, stress resistant, 6-week-old male piglets (Landrace × Large White × Maximus, Seghers Hybrid®, Wuustwezel, Belgium) were recruited for this study. Upon arrival piglets were group-housed in standard pig stables (2.30 × 2.40 m) with ad libitum access to water and feed (Piggistart Opti®, Aveve, Leuven, Belgium). During the whole experimental period, stables were enriched with rubber toys, balls of different size, and cotton towels. After a 5-day acclimatization period, a double-lumen jugular catheter was inserted following the procedure described by Gasthuys et al., permitting accurate intravenous (IV) administration of the renal markers and blood collection ([Gasthuys et al., 2017b]). During anesthesia, a human stoma ring (Esteem synergy® Uro, 48 mm, ConvaTec, Belgium) was attached around the prepuce of the piglets to allow urine collection ([Gasthuys et al., 2017b]). After surgery, the pigs were housed individually to avoid displacements of the catheters and stoma rings. Catheters were flushed at least twice daily with heparinized 0.9% NaCl (50 IU/ml), and the bandages were changed daily.\n(§2) After a one day recovery period, urine pouches were attached to the stoma ring just before administration of the drugs. […] Blood was sampled via the other lumen of the catheter at 0, 5, 15, 30, 45, and 60 min, and 2, 4, 6, 8, 12, 24, 36, 48, and 72 h post administration and collected into K3EDTA collection tubes (Vacutest®, Piove die Sacco, Kima, Italy). The samples were kept on ice and centrifuged (2,095 × g, 10 min, 4°C) within 2 h. Multiple timed urine collections were performed over a 48 h time period. The total volume of urine voided in each time period was registered. Aliquots of plasma were stored at ≤−80°C until analysis. Urine samples were initially stored at −20°C for 6 weeks, but were subsequently stored at −80°C for further storage.\n(§3) Total plasma iohexol and PAH concentrations were quantified simultaneously using a validated ultrahigh performance liquid chromatography tandem mass spectrometry (UHPLC-MS/MS) method as previously described by [Dhondt et al. (2019)] […] The same UHPLC method was used for analysis of PAH in urine samples with slight modifications. The LLOQ was 0.25 µg/ml.\n(§4) Pharmacokinetic modeling of the plasma concentration–time data was performed using Phoenix® 8.1 (Certara, Cary, NC, USA). Values below the LOQ were excluded from the dataset. […] A multiplicative error model was used. […] The estimated primary parameters were volume of distribution (Vd) and total body clearance (CLTOT). Also the following secondary parameters were calculated: elimination half-life (T1/2el), elimination rate constant (Ke), volume of distribution at steady state (Vss), and the area under the curve from time 0 h to infinity (AUC0→inf).\n(§5) The cumulative amount of unchanged compound recovered in the urine (Ae) was calculated taking the sum of the amount excreted at every collection point. This amount was calculated by multiplying the observed concentration by the volume collected at every collection point.\n(§6) where AUC0→inf is the area under the plasma concentration–time curve extrapolated to infinity. […] The AUC0→48h was calculated by noncompartmental analysis (NCA) using the linear up-log down trapezoidal method. The nonrenal clearance (CLNR) was obtained by subtracting the CLR from CLTOT. The CLTOT of iohexol is a measure for the GFR. The CLR of PAH is used to estimate the ERPF. The filtration fraction (FF) was calculated by"}, "[3]": {"settings": "pig, in vivo, iv", "from_the_text": "as §1, §2, §3, §4, §5, §6"}, "plasma proteins [4]": {"system": "plasma proteins", "assay": "In vitro plasma protein binding by ultrafiltration in spiked pig plasma", "type": "in vitro ADME", "settings": "39°C, fluconazole corrected for NSB", "protocol": "Three aliquots of each concentration level were analyzed the same way as the pharmacokinetic (PK) study samples as described above to determine the total plasma concentration. Three other aliquots of each concentration were incubated for 1 h in a hot water bath of 39°C to replicate the pig's core body temperature and subsequently transferred onto an ultrafiltration device. […] Thereafter, the obtained filtrate was analyzed in the same way as the PK study samples to determine the unbound plasma concentration. The following equation was used to determine the unbound fraction in plasma: […]\nThe duration of centrifugation was reduced to 2.5 and 1.0 min for Microcon® and Amicon® filters, respectively.\nCunbound,corrected=Cunbound,measured/1-NSB"}, "porcine kidney": {"system": "porcine kidney", "set-up": "method as in Gyrd-Hansen and Rasmussen (1970)", "settings": "in vivo, pigs; ref Gyrd-Hansen and Rasmussen (1970); cited from earlier work"}, "[5]": {"settings": "healthy human adults, ref Gross et al. (2001), cited from earlier work; for Net tubular secretion (CLSECR): pindolol given orally; for Net tubular reabsorption (CLREA): fluconazole given orally"}, "[6]": {"set-up": "method as in Gasthuys et al., 2017a", "settings": "pigs of 7 weeks of age; ref Gasthuys et al., 2017a; cited from earlier work"}, "plasma proteins [7]": {"system": "plasma proteins", "set-up": "method as in Humphrey et al., 1985", "settings": "other species like humans, dogs, rats, and mice; ref Humphrey et al., 1985; cited from earlier work"}, "GFR": {"system": "GFR", "settings": "hypertensive patients, ref Wainer et al., 1980, cited from earlier work"}, "plasma proteins [8]": {"system": "plasma proteins", "set-up": "method as in Hsyu and Giacomini, 1985", "settings": "humans; ref Hsyu and Giacomini, 1985; cited from earlier work"}, "[9]": {"settings": "humans; ref Schwarz, 1982; cited from earlier work"}, "ERPF and GFR": {"system": "ERPF and GFR", "set-up": "method as in Epstein et al., 1985", "settings": "dogs, IV administration; ref Epstein et al., 1985; cited from earlier work"}, "[10]": {"set-up": "method as in Friedli et al., 1986", "settings": "pigs with induced myocardial infarction, IV 0.05 mg/kg; ref Friedli et al., 1986; cited from earlier work"}, "[11]": {"settings": "7-week-old male pigs, indexed to BSA, mean ± SD"}, "[12]": {"settings": "corrected for estimated mean BSA"}, "[13]": {"settings": "male, Landrace × Large White × Maximus (Seghers Hybrid), pig, plasma, iv"}, "[14]": {"settings": "male, Landrace × Large White × Maximus (Seghers Hybrid), pig, plasma, iv, 0.5 mg/kg"}},
  "note": "Where “and” joins values, the source holds several entries; their conditions need not be identical. Identical values can stand only once. Like-named read-outs stand apart in the source and are kept apart here.",
  "data": [
    {"compound": "Nc1ccc(C(=O)NCC(=O)O)cc1", "note": "[PAH, para-aminohippuric acid]", "values": [
      {"measurement": "Nonrenal clearance as share of total drug elimination", "setting": "[1]; ref Prescott et al., 1993", "value": "15 to 30", "unit": "%"},
      {"measurement": "Plasma concentration at which saturation of the transport system is observed", "setting": "[1]; ref Tett et al., 2003", "value": "300 to 600", "unit": "µg/mL"},
      {"measurement": "ERPF = CLR PAH", "setting": "[2]; [11]", "value": "226.77 ml/min/m² and 226.77 ± 62.45 ml/min/m²"},
      {"measurement": "ERPF = CLR PAH", "setting": "[2]; 7-week-old male pigs, indexed to BW, mean ± SD", "value": "9.51 ± 2.44", "unit": "mL/min/kg"},
      {"measurement": "Urinary recovery", "setting": "[2]; IV bolus, 7-week-old male pigs, fraction of dose recovered unchanged in urine, n = 6", "value": "30.09 ± 5.06", "unit": "%"},
      {"measurement": "CLNR", "setting": "[2]; IV bolus, 7-week-old male pigs, n = 6, CLTOT minus CLR, mean ± SD", "value": "22.02 mL/min/kg and 22.02 ± 3.76 mL/min/kg"},
      {"measurement": "Ae, cumulative amount of unchanged compound recovered in the urine", "setting": "[2]; IV bolus, 7-week-old male pigs, urine collected over 48 h, n = 6, mean ± SD", "value": "29,512 ± 5751 µg"},
      {"measurement": "CLTOT", "setting": "[2]; Table 1, IV bolus, 7-week-old male pigs, iohexol n = 8, others n = 6, mean ± SD", "value": "31.53 ± 5.38", "unit": "mL/min/kg"},
      {"measurement": "Contribution of nonrenal elimination to total clearance", "setting": "[2]; pigs", "value": "approximately 70%"},
      {"measurement": "PAH plasma concentrations reached", "setting": "[2]; pigs, IV bolus 10 mg/kg BW", "value": "below 30 µg/ml"},
      {"measurement": "CLR", "setting": "[3]", "value": "9.51 ± 2.44", "unit": "mL/min/kg"},
      {"measurement": "Fu, free, non-protein bound, fraction", "setting": "plasma proteins [4]", "value": 1.0},
      {"measurement": "Amount of PAH acetylated by the porcine kidney, mean", "setting": "porcine kidney", "value": "−0.1", "unit": "%"},
      {"measurement": "ERPF = CLR PAH", "setting": "[5]; [12]", "value": "247.09 ml/min/m² and 247.09 ± 77.25 ml/min/m²"},
      {"measurement": "ERPF = CLR PAH", "setting": "[5]; corrected for mean BW 72 kg", "value": "6.48 ± 2.02", "unit": "mL/min/kg"},
      {"measurement": "Net tubular secretion (CLSECR)", "setting": "[5]; [12]", "value": "189.95 ml/min/m² and 189.95 ± 70.90 ml/min/m²"},
      {"measurement": "Net tubular secretion (CLSECR)", "setting": "[5]; corrected for mean BW 72 kg", "value": "4.99 mL/min/kg and 4.99 ± 1.86 mL/min/kg"}
    ]},
    {"compound": "CC(=O)N(CC(O)CO)c1c(I)c(C(=O)NCC(O)CO)c(I)c(C(=O)NCC(O)CO)c1I", "note": "(centres unmarked) [Iohexol, iohexol]", "values": [
      {"measurement": "GFR = CLTOT IOH", "setting": "[2]; [11]", "value": "97.87 ± 16.05", "unit": "ml/min/m²"},
      {"measurement": "clearance", "setting": "[2]; male, Landrace × Large White × Maximus (Seghers Hybrid), pig, plasma, intravenous, 64.7 mg/kg BW", "value": "4.12 ± 0.54", "unit": "mL/min/kg"},
      {"measurement": "clearance", "setting": "[2]; [13]", "value": "4.12 ± 0.54", "unit": "mL/min/kg"},
      {"measurement": "Iohexol clearance", "setting": "[6]", "value": "100.92 ± 20.84", "unit": "ml/min/m²"}
    ]},
    {"compound": "CC(C)NC[C@@H](O)COc1cccc2[nH]ccc12", "note": "[R-pindolol]", "values": [
      {"measurement": "Fu, free, non-protein bound, fraction", "setting": "plasma proteins [4]", "value": "0.19 ± 0.03^3"}
    ]},
    {"compound": "sinistrin", "values": [
      {"measurement": "GFR (renal clearance of sinistrin)", "setting": "[5]; [12]", "value": "68.78 ± 21.16^2 ml/min/m²"},
      {"measurement": "GFR (renal clearance of sinistrin)", "setting": "[5]; corrected for mean BW 72 kg", "value": "1.81 ± 0.56^2 ml/min/kg"}
    ]},
    {"compound": "OC(Cn1cncn1)(Cn1cncn1)c1ccc(F)cc1F", "note": "[Fluconazole, fluconazole]", "values": [
      {"measurement": "CL renal", "setting": "[2]; male, Landrace × Large White × Maximus (Seghers Hybrid), pig, iv, 0.5 mg/kg, CLR, IV bolus, 7-week-old male pigs, n = 6, Ae/AUC0→inf (fluconazole: Ae 48 h/AUC0→48h), mean ± SD", "value": "0.32 ± 0.05", "unit": "mL/min/kg"},
      {"measurement": "CL renal", "setting": "[2]; male, Landrace × Large White × Maximus (Seghers Hybrid), pig, iv, 0.5 mg/kg, Renal clearance calculated over a time period of 24 h, pigs, IV 0.5 mg/kg, data up to 24 h", "value": "0.33 ± 0.06", "unit": "mL/min/kg"},
      {"measurement": "CL renal", "setting": "[2]; male, Landrace × Large White × Maximus (Seghers Hybrid), pig, iv, 0.5 mg/kg, Renal clearance estimated over 48 h, pigs, IV 0.5 mg/kg, data up to 48 h", "value": "0.32 ± 0.05", "unit": "mL/min/kg"},
      {"measurement": "clearance", "setting": "[2]; [13]", "value": "0.45 ± 0.049", "unit": "mL/min/kg"},
      {"measurement": "Vd", "setting": "[2]; [14]", "value": "0.98 ± 0.04", "unit": "L/kg"},
      {"measurement": "clearance", "setting": "[2]; [14]", "value": "0.45 ± 0.05", "unit": "mL/min/kg"},
      {"measurement": "half-life", "setting": "[2]; [14]", "value": "25.7 ± 2.75", "unit": "h"},
      {"measurement": "k el", "setting": "[2]; [14]", "value": "8.33e-06", "unit": "s⁻¹"},
      {"measurement": "CLNR", "setting": "[3]; male, Landrace × Large White × Maximus (Seghers Hybrid)", "value": "0.13 ± 0.039", "unit": "mL/min/kg"},
      {"measurement": "Plasma protein binding", "setting": "plasma proteins [7]", "value": "~ 12%"},
      {"measurement": "Net tubular reabsorption (CLREA)", "setting": "[5]; [12]", "value": "49.21 ± 15.34", "unit": "ml/min/m²"},
      {"measurement": "Net tubular reabsorption (CLREA)", "setting": "[5]; corrected for mean BW 72 kg", "value": "1.29 ± 0.40", "unit": "mL/min/kg"}
    ]},
    {"compound": "CC(C)NCC(O)COc1cccc2[nH]ccc12", "note": "(centres unmarked) [pindolol]", "values": [
      {"measurement": "Decrease in GFR against baseline, average", "setting": "GFR; IV administration", "value": 4.37, "unit": "%"},
      {"measurement": "Decrease in GFR against baseline, range", "setting": "GFR; IV administration", "value": "0.96−9.43%"},
      {"measurement": "Effect on GFR against baseline", "setting": "GFR; oral administration", "value": "no significant effect"},
      {"measurement": "fu", "setting": "plasma proteins [8]", "value": 0.45},
      {"measurement": "Urinary excretion of unchanged pindolol", "setting": "[9]", "value": 35, "unit": "%"},
      {"measurement": "Effect on ERPF and GFR", "setting": "ERPF and GFR", "value": "slight but insignificant decrements in ERPF and GFR"},
      {"measurement": "Hemodynamical changes", "setting": "[10]", "value": "did not induce any hemodynamical changes"}
    ]},
    {"compound": "CC(C)NC[C@H](O)COc1cccc2[nH]ccc12", "note": "[S-pindolol]", "values": [
      {"measurement": "Fu, free, non-protein bound, fraction", "setting": "plasma proteins [4]", "value": "0.62 ± 0.00^3"}
    ]}
  ]
}
